The values that follow come from patent publication US5663162A, “Cephem derivatives” (priority 1993, dated 1997).

Values after ≈ are worked out from the molar mass of the structure shown. Like-named read-outs stand apart in the source and are kept apart here.

Data set [1] can be described thus: Acute toxicity test in ICR mice. The class given is in vivo. The settings on record: mouse, in vivo, iv. Here is the method:
(§1) 0.5 ml of a pharmaceutical solution prepared by dissolving a compound of the present invention in a physiological saline solution for injection (80 mg/ml) was injected to the caudal veins of ICR mice (4 weeks old, male, body weight: approx. 20 g). Two weeks after the administration, the mice were observed whether they were dead or not. […] Therefore, the LD50 of this compound is >2 g/kg (>40 mg/mouse).

The subject of a further data set is ICR mice. Put plainly: Acute toxicity test in ICR mice. Format: in vivo. The protocol: as §1
The test system of another data set is S. Aureus 126. Description: Antibacterial activity test, MIC by two-fold dilution method. The class given is cell-based, Staphylococcus aureus (methicillin-resistant, MRSA). The settings on record: Staphylococcus aureus, MRSA, read-out: Minimum Inhibition Concentration. The protocol: (§2) The measurement was carried out in the following manner: 10^6 CFU/ml of a bacterium to be tested was inoculated on a Medium N for disc susceptibility test (manufactured by Nissui Pharmaceutical Co., Ltd.), and cultivated at 35° C. for 18 to 20 hours.

A further data set concerns S. Aureus 133. The data set is described as above. The class given is cell-based, Staphylococcus aureus (methicillin-resistant, MRSA). The note with it: Staphylococcus aureus, MRSA, read-out: Minimum Inhibition Concentration. Here is the method: as §2
The next data set deals with E. cloacae G-0008. The data set is described as above. Format: cell-based. The note with it: Enterobacter cloacae, G0008; E. cloacae G-0008; 10^6 CFU/ml, 35° C., 18 to 20 hours; read-out: Minimum Inhibition Concentration. The protocol:
as §2

Another data set deals with M. morganii 1510/S-1. Described as above. Format: cell-based. The settings on record: Morganella morganii, 1510/S1; M. morganii 1510/S-1; 10^6 CFU/ml, 35° C., 18 to 20 hours; read-out: Minimum Inhibition Concentration. The protocol: as §2
The test system of a further data set is S. marcescens No. 1. The description is as above. Format: cell-based. The settings on record: Serratia marcescens; S. marcescens No. 1; 10^6 CFU/ml, 35° C., 18 to 20 hours; read-out: Minimum Inhibition Concentration. Here is the method:
as §2

A further data set has as its system C. freundii GN346/16. Described as above. The class given is cell-based. The settings on record: Citrobacter freundii; C. freundii GN346/16; 10^6 CFU/ml, 35° C., 18 to 20 hours; read-out: Minimum Inhibition Concentration. Here is the method:
as §2

The next data set relates to E. coli NIHJ JC-2. The data set is described as above. The class given is cell-based. The settings on record: Escherichia coli, NIHJJC2; E. coli NIHJ JC-2; 10^6 CFU/ml, 35° C., 18 to 20 hours; read-out: Minimum Inhibition Concentration. The protocol: as §2
In a further data set the test system is K. pneumoniae PC1602. The description is as above. The class given is cell-based. The settings on record: Klebsiella pneumoniae; K. pneumoniae PC1602; 10^6 CFU/ml, 35° C., 18 to 20 hours; read-out: Minimum Inhibition Concentration. The protocol: as §2
The test system of the next data set is P. aeruginosa E-2. The data set is described as above. The class given is cell-based. The note with it: Pseudomonas aeruginosa. Here is the method:
as §2

A further data set relates to P. vulgaris GN76. The data set is described as above. Format: cell-based. The settings on record: Proteus vulgaris. The protocol: as §2
The next data set relates to S. epidermidis ATCC14990. The description is as above. The class given is cell-based. The settings on record: Staphylococcus epidermidis; S. epidermidis ATCC14990; 10^6 CFU/ml, 35° C., 18 to 20 hours; read-out: Minimum Inhibition Concentration. Here is the method:
as §2

The next data set relates to S. Aureus 209P JC-1. Described as above. Format: cell-based. The settings on record: Staphylococcus aureus; S. Aureus 209P JC-1; 10^6 CFU/ml, 35° C., 18 to 20 hours; read-out: Minimum Inhibition Concentration. Here is the method:
as §2

In another data set the test system is P. aeruginosa GN10362. Described as above. The class given is cell-based. The note with it: Pseudomonas aeruginosa. The protocol:
as §2

`CCO/N=C(\C(=O)N[C@@H]1C(=O)N2C(C(=O)[O-])=C(C[n+]3cc4sccn4c3CNC=O)CS[C@H]12)c1nsc(N)n1` [Example 49, (6R,7R)-7-[(Z)-2-(5-Amino-1,2,4-thiadiazol-3-yl)-2-ethoxyiminoacetamide]-3-[5-(formylamino)methylimidazo[5,1-b]thiazolium-6-yl]methyl-3-cephem-4-carboxylate] registered an LD50 at 336 h in [1] of over 2000 mg/kg. Besides, in the data set with ICR mice (ICR mice, 0.5 ml of 80 mg/ml solution, caudal vein, 3 cases), the “survival two weeks after administration” value was “all (3 cases) alive”. This compound had an LD50 with ICR mice (mouse, in vivo) of over 40 mg/mouse. Moreover, the MIC with S. Aureus 126 was 6.25 µg/mL (≈ 10.6 µM); in the data set with S. Aureus 133, 6.25 µg/mL (≈ 10.6 µM); in the data set with E. cloacae G-0008, 0.05 µg/mL (≈ 0.0845 µM); in the data set with M. morganii 1510/S-1, at most 0.025 µg/mL; in the data set with S. marcescens No. 1, 0.1 µg/mL (≈ 0.169 µM); with C. freundii GN346/16, 0.05 µg/mL (≈ 0.0845 µM). Also, the MIC with E. coli NIHJ JC-2 came to 0.05 µg/mL (≈ 0.0845 µM); in the data set on K. pneumoniae PC1602, 0.05 µg/mL (≈ 0.0845 µM); with P. aeruginosa E-2 (E2, read-out: Minimum Inhibition Concentration), 1.56 µg/mL (≈ 2.64 µM); in the data set on P. vulgaris GN76 (GN76, read-out: Minimum Inhibition Concentration), 0.39 µg/mL (≈ 0.659 µM); in the data set with S. epidermidis ATCC14990, 0.78 µg/mL (≈ 1.32 µM); with S. Aureus 209P JC-1, 0.78 µg/mL (≈ 1.32 µM). In addition, the MIC with P. aeruginosa GN10362 (GN10362, read-out: Minimum Inhibition Concentration) stood at 1.56 µg/mL (≈ 2.64 µM).
Regarding `Nc1nc(/C(=N/OCF)C(=O)N[C@@H]2C(=O)N3C(C(=O)[O-])=C(C[n+]4cc5sccn5c4[C@H](CO)NC=O)CS[C@H]23)ns1` [Example 164, (6R,7R)-7-[(Z)-2-(5-amino-1,2,4-thiadiazol-3-yl)-2-fluoromethoxyiminoacetamido]-3-[5-((R)-1-formylamino-2-hydroxyethyl]imidazo[5,1-b]thiazolium-6-yl)methyl-3-cephem-4-carboxylate], the MIC was 6.25 µg/mL (≈ 9.99 µM) with S. Aureus 126; 6.25 µg/mL (≈ 9.99 µM) in the data set with S. Aureus 133; 0.05 µg/mL (≈ 0.0799 µM) in the data set with E. cloacae G-0008; at most 0.025 µg/mL in the data set with M. morganii 1510/S-1; at most 0.025 µg/mL in the data set with S. marcescens No. 1; at most 0.025 µg/mL with C. freundii GN346/16. In addition, the MIC was at most 0.025 µg/mL in the data set on E. coli NIHJ JC-2; at most 0.025 µg/mL with K. pneumoniae PC1602; 0.78 µg/mL (≈ 1.25 µM) with P. aeruginosa E-2 (E2, P. aeruginosa E-2, 10^6 CFU/ml, 35° C., 18 to 20 hours, read-out: Minimum Inhibition Concentration); 0.2 µg/mL (≈ 0.32 µM) in the data set with P. vulgaris GN76 (P. vulgaris GN76, 10^6 CFU/ml, 35° C., 18 to 20 hours, read-out: Minimum Inhibition Concentration); 0.78 µg/mL (≈ 1.25 µM) in the data set with S. epidermidis ATCC14990; 0.78 µg/mL (≈ 1.25 µM) with S. Aureus 209P JC-1. For the same compound, in the data set with P. aeruginosa GN10362 (P. aeruginosa GN10362, 10^6 CFU/ml, 35° C., 18 to 20 hours, read-out: Minimum Inhibition Concentration), the MIC is 0.78 µg/mL (≈ 1.25 µM).
